Patent publication KR20080072496A, “노스탁속 균주 유래 아밀로플루란네이즈 및 이를 이용한고순도 말토올리고당의 제조방법” (재단법인서울대학교산학협력재단, priority 2007, dated 2008)

Molecular target: T1, Nostoc sp. PCC73102 amylopullulanase, SEQ ID NO: 4, recombinant from pETNPul6xH with C-terminal Leu-Glu-6His (노스탁속 균주 유래 아밀로플루란네이즈) (Nostoc punctiforme (strain ATCC 29133 / PCC 73102), UniProt B2IUW9)
T1 sequence (B2IUW9 1-488): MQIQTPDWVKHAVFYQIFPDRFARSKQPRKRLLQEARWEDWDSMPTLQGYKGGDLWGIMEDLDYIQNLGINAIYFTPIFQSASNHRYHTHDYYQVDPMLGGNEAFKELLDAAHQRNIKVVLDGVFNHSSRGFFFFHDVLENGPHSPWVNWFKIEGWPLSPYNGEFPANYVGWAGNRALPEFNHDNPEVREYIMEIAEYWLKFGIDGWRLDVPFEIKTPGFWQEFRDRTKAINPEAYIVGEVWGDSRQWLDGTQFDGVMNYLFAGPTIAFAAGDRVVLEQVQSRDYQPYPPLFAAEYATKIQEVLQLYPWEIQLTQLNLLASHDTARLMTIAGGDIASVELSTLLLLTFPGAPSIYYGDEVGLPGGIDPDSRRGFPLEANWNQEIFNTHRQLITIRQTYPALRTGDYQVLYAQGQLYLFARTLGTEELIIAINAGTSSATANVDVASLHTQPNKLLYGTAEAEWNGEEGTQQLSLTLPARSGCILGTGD
Test: Kinetics of amylopullulanase on maltoheptaose, maltooctaose and maltononaose (Example 6-2, glucose quantified by GOD-POD method)
Assay type: biochemical
Details: 25 °C, pH 7, 3 min

Compound | Km, ratio to Km of maltononaose (relative to maltononaose (G9)) | Km, ratio to Km of maltooctaose (relative to maltooctaose (G8)) | Kcat, ratio to Kcat of maltoheptaose (relative to maltoheptaose (G7))
OC[C@H]1O[C@H](O[C@H]2[C@H](O)[C@@H](O)[C@@H](O[C@H]3[C@H](O)[C@@H](O)[C@@H](O[C@H]4[C@H](O)[C@@H](O)[C@@H](O[C@H]5[C@H](O)[C@@H](O)[C@@H](O[C@H]6[C@H](O)[C@@H](O)[C@@H](O[C@H]7[C@H](O)[C@@H](O)C(O)O[C@@H]7CO)O[C@@H]6CO)O[C@@H]5CO)O[C@@H]4CO)O[C@@H]3CO)O[C@@H]2CO)[C@H](O)[C@@H](O)[C@@H]1O (stereo partly drawn) [말토헵타오스, maltoheptaose] | 20 배 (fold) | 7 배 (fold) | –
OC[C@H]1O[C@H](O[C@H]2[C@H](O)[C@@H](O)[C@@H](O[C@H]3[C@H](O)[C@@H](O)[C@@H](O[C@H]4[C@H](O)[C@@H](O)[C@@H](O[C@H]5[C@H](O)[C@@H](O)[C@@H](O[C@H]6[C@H](O)[C@@H](O)[C@@H](O[C@H]7[C@H](O)[C@@H](O)[C@@H](O[C@H]8[C@H](O)[C@@H](O)[C@@H](O[C@H]9[C@H](O)[C@@H](O)C(O)O[C@@H]9CO)O[C@@H]8CO)O[C@@H]7CO)O[C@@H]6CO)O[C@@H]5CO)O[C@@H]4CO)O[C@@H]3CO)O[C@@H]2CO)[C@H](O)[C@@H](O)[C@@H]1O (stereo partly drawn) [말토노나오스, maltononaose] | – | – | ~3 배 (fold)
